Experimental data reported in patent US20210115104A1, “AMYLIN ANALOGUES” (Zealand Pharma A/S, priority 2015, published 2021).
*1 amine or outer side, *2 acyl side, *3 side chain or, on linkers, in order; H or OH if unused. Where a SMILES comes first, the peptide text is derived from it. Bridges are numbered along the chain shown (N, C = ends). [ ]: non-standard residue; d: D form. The star is where a group is joined. C20 diacid = O=C(O)CCCCCCCCCCCCCCCCCCC(=O)*; γGlu = O=C(O)[C@H](CCC(=O)[*:2])N[*:1]; Hyp = O=C(O)[C@@H]1C[C@@H](O)CN1; NMeI = CC[C@H](C)[C@H](NC)C(=O)O; Aad = N[C@@H](CCCC(=O)O)C(=O)O; Sar = CNCC(=O)O

Columns and labels:
[1] = Assessment of chemical stability (RP-HPLC normalized purity); format: physicochemical; details: for Normalized purity after 7 days, 40° C., pH 4: pH 4, 0.2 mg/ml; for Normalized purity after 7 days, 40° C., pH 4 / Normalized purity after 7 days, 40° C., pH 6 / Normalized purity after 7 days, 40° C., pH 7.5 / Normalized purity after 7 days, 40° C., pH 9: Table 1; for Normalized purity after 7 days, 40° C., pH 6: pH 6, 0.2 mg/ml; for Normalized purity after 7 days, 40° C., pH 7.5: pH 7.5, 0.2 mg/ml; for Normalized purity after 7 days, 40° C., pH 9: pH 9, 0.2 mg/ml; for Normalized purity pH 4 (Table 5): pH 4, repeat of Example 6 for pairs with/without Asn-Asn at 21-22; for Normalized purity pH 6 (Table 5): pH 6, repeat of Example 6 for pairs with/without Asn-Asn at 21-22; for Normalized purity pH 7.5 (Table 5): pH 7.5, repeat of Example 6 for pairs with/without Asn-Asn at 21-22; for Normalized purity pH 9 (Table 5): pH 9, repeat of Example 6 for pairs with/without Asn-Asn at 21-22
Method in brief: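 Peptides at 0.2 mg/ml in water adjusted to pH 4, 6, 7.5 or 9, incubated at 40° C for 7 days. Main-peak area-% by RP-HPLC (C8 ammonium formate or C18 TFA gradient, UV 220 nm), normalized to T=0 as 100.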

[2] = molecular target: T1, human calcitonin receptor (hCTR2) (Homo sapiens, UniProt P30988); test: hCTR2 cAMP assay (AlphaScreen) in COS7 cells; format: cell-based; details: cAMP induction, COS7 cells expressing hCTR2; Table 1; read-out: hCTR2 EC50
T1 construct: expressed in transfected cells
T1 sequence (P30988 25-474): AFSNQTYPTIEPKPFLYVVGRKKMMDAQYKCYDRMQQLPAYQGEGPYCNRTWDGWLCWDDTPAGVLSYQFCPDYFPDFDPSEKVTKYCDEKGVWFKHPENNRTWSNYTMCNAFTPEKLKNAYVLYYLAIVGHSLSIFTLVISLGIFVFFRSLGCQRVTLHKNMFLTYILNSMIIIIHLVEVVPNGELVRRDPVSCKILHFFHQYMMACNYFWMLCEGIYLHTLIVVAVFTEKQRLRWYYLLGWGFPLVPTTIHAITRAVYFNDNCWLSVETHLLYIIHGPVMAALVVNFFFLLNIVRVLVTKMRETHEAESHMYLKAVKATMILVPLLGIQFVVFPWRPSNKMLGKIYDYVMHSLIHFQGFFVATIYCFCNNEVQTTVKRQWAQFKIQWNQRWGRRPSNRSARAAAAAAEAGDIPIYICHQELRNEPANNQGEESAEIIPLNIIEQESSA
Method in brief: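 Stable hCTR2 clone in RAMP-naïve COS7 cells stimulated 15 min at 37 °C with increasing peptide concentrations in Tyrode buffer pH 7.4 containing IBMX and 0.1% casein. cAMP in lysates measured by AlphaScreen; EC50 from 4-parameter logistic fit.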

| SMILES | Normalized purity after 7 days, 40° C., pH 4 [1] | Normalized purity after 7 days, 40° C., pH 6 [1] | Normalized purity after 7 days, 40° C., pH 7.5 [1] | Normalized purity after 7 days, 40° C., pH 9 [1] | EC50 [2] [nM] | Normalized purity pH 4 (Table 5) [1] | Normalized purity pH 6 (Table 5) [1] | Normalized purity pH 7.5 (Table 5) [1] | Normalized purity pH 9 (Table 5) [1] |
| --- | --- | --- | --- | --- | --- | --- | --- | --- | --- |
| CC[C@H](C)[C@@H](C(=O)N[C@@H](CC(C)C)C(=O)N[C@@H](CO)C(=O)N[C@@H](CO)C(=O)N[C@H](C(=O)N[C@@H](CCC(=O)O)C(=O)N[C@H](C(=O)NCC(=O)N[C@@H](CO)C(=O)N[C@@H](CC(N)=O)C(=O)N[C@H](C(=O)N1C[C@H](O)C[C@H]1C(N)=O)[C@@H](C)O)C(C)C)[C@@H](C)O)N(C)C(=O)[C@H](C)NC(=O)CN(C)C(=O)[C@H](Cc1ccccc1)NC(=O)[C@H](CO)NC(=O)[C@H](CO)NC(=O)[C@H](CCCNC(=N)N)NC(=O)[C@H](CCC(N)=O)NC(=O)[C@H](CC(C)C)NC(=O)[C@H](Cc1ccccc1)NC(=O)[C@H](CC(=O)O)NC(=O)[C@H](C)NC(=O)[C@H](CC(C)C)NC(=O)[C@H](CCCNC(=N)N)NC(=O)[C@H](CCC(N)=O)NC(=O)[C@@H](NC(=O)[C@H](C)NC(=O)[C@@H]1CSSC[C@H](NC(=O)[C@H](CCCNC(=N)N)NC(=O)CC[C@H](NC(=O)CCCCCCCCCCCCCCCCCCC(=O)O)C(=O)O)C(=O)N[C@@H](CC(N)=O)C(=O)N[C@@H]([C@@H](C)O)C(=O)N[C@@H](C)C(=O)N[C@@H]([C@@H](C)O)C(=O)N1)[C@@H](C)O [Compound 49, [19CD]-isoGlu-R-C( )-NTAT-C( )-ATQRLADFLQRSSF-Gly(Me)-A-Ile(Me)-LSSTEVGSNT-Hyp-NH2] ({C20 diacid-γGlu}-RCNTATCATQRLADFLQRSSF[Sar]A[NMeI]LSSTEVGSNT[Hyp]-NH2; disulfide 2-7) | A (A = >90%) | A (A = >90%) | A (A = >90%) | B (B = 70-90%) | 0.06 | – | – | – | – |
| CC[C@H](C)[C@@H](C(=O)N[C@@H](CC(C)C)C(=O)N[C@@H](CO)C(=O)N[C@@H](CO)C(=O)N[C@H](C(=O)N[C@@H](CCC(=O)O)C(=O)N[C@H](C(=O)NCC(=O)N[C@@H](CO)C(=O)N[C@@H](CC(N)=O)C(=O)N[C@H](C(=O)N1C[C@H](O)C[C@H]1C(N)=O)[C@@H](C)O)C(C)C)[C@@H](C)O)N(C)C(=O)[C@H](C)NC(=O)CN(C)C(=O)[C@H](Cc1ccccc1)NC(=O)[C@H](CO)NC(=O)[C@H](CO)NC(=O)[C@H](CCCNC(=N)N)NC(=O)[C@H](CCC(N)=O)NC(=O)[C@H](CC(C)C)NC(=O)[C@H](Cc1ccccc1)NC(=O)[C@H](CCCC(=O)O)NC(=O)[C@H](C)NC(=O)[C@H](CC(C)C)NC(=O)[C@H](CCCNC(=N)N)NC(=O)[C@H](CCC(=O)O)NC(=O)[C@@H](NC(=O)[C@H](C)NC(=O)[C@@H]1CSSC[C@H](NC(=O)[C@H](CCCNC(=N)N)NC(=O)CC[C@H](NC(=O)CCCCCCCCCCCCCCCCCCC(=O)O)C(=O)O)C(=O)NCC(=O)N[C@@H]([C@@H](C)O)C(=O)N[C@@H](C)C(=O)N[C@@H]([C@@H](C)O)C(=O)N1)[C@@H](C)O [Compound 55, [19CD]-isoGlu-R-C( )-GTAT-C( )-ATERLA-Aad-FLQRSSF-Gly(Me)-A-Ile(Me)-LSSTEVGSNT-Hyp-NH2] ({C20 diacid-γGlu}-RCGTATCATERLA[Aad]FLQRSSF[Sar]A[NMeI]LSSTEVGSNT[Hyp]-NH2; disulfide 2-7) | A (A = >90%) | A (A = >90%) | A (A = >90%) | B (B = 70-90%) | 0.11 | A (A = >90%) | A (A = >90%) | A (A = >90%) | B (B = 70-90%) |
| CC[C@H](C)[C@@H](C(=O)N[C@@H](CC(C)C)C(=O)N[C@@H](CO)C(=O)N[C@@H](CO)C(=O)N[C@H](C(=O)N[C@@H](CCC(=O)O)C(=O)N[C@H](C(=O)NCC(=O)N[C@@H](CO)C(=O)N[C@@H](CC(N)=O)C(=O)N[C@H](C(=O)N1C[C@H](O)C[C@H]1C(N)=O)[C@@H](C)O)C(C)C)[C@@H](C)O)N(C)C(=O)[C@H](C)NC(=O)CN(C)C(=O)[C@H](Cc1ccccc1)NC(=O)[C@H](CO)NC(=O)[C@H](CO)NC(=O)[C@H](CCCNC(=N)N)NC(=O)[C@H](CCC(N)=O)NC(=O)[C@H](CC(C)C)NC(=O)[C@H](Cc1ccccc1)NC(=O)[C@H](Cc1c[nH]cn1)NC(=O)[C@H](C)NC(=O)[C@H](CC(C)C)NC(=O)[C@H](CCCNC(=N)N)NC(=O)[C@H](CCC(=O)O)NC(=O)[C@@H](NC(=O)[C@H](C)NC(=O)[C@@H]1CSSC[C@H](NC(=O)[C@H](CCCNC(=N)N)NC(=O)CC[C@H](NC(=O)CCCCCCCCCCCCCCCCCCC(=O)O)C(=O)O)C(=O)N[C@@H](CCC(N)=O)C(=O)N[C@@H]([C@@H](C)O)C(=O)N[C@@H](C)C(=O)N[C@@H]([C@@H](C)O)C(=O)N1)[C@@H](C)O [Compound 57, [19CD]-isoGlu-R-C( )-QTAT-C( )-ATERLAHFLQRSSF-Gly(Me)-A-Ile(Me)-LSSTEVGSNT-Hyp-NH2] ({C20 diacid-γGlu}-RCQTATCATERLAHFLQRSSF[Sar]A[NMeI]LSSTEVGSNT[Hyp]-NH2; disulfide 2-7) | A (A = >90%) | A (A = >90%) | A (A = >90%) | A (A = >90%) | 0.08 | A (A = >90%) | A (A = >90%) | A (A = >90%) | B (B = 70-90%) |
| CC[C@H](C)[C@@H](C(=O)N[C@@H](CC(C)C)C(=O)N[C@@H](CO)C(=O)N[C@@H](CO)C(=O)N[C@H](C(=O)N[C@@H](CCC(=O)O)C(=O)N[C@H](C(=O)NCC(=O)N[C@@H](CO)C(=O)NCC(=O)N[C@H](C(=O)N1C[C@H](O)C[C@H]1C(N)=O)[C@@H](C)O)C(C)C)[C@@H](C)O)N(C)C(=O)[C@H](C)NC(=O)CN(C)C(=O)[C@H](Cc1ccccc1)NC(=O)[C@H](CO)NC(=O)[C@H](CO)NC(=O)[C@H](CCCNC(=N)N)NC(=O)[C@H](CCC(N)=O)NC(=O)[C@H](CC(C)C)NC(=O)[C@H](Cc1ccccc1)NC(=O)[C@H](Cc1c[nH]cn1)NC(=O)[C@H](C)NC(=O)[C@H](CC(C)C)NC(=O)[C@H](CCCNC(=N)N)NC(=O)[C@H](CCC(N)=O)NC(=O)[C@@H](NC(=O)[C@H](C)NC(=O)[C@@H]1CSSC[C@H](NC(=O)[C@H](CCCNC(=N)N)NC(=O)CC[C@H](NC(=O)CCCCCCCCCCCCCCCCCCC(=O)O)C(=O)O)C(=O)N[C@@H](CC(N)=O)C(=O)N[C@@H]([C@@H](C)O)C(=O)N[C@@H](C)C(=O)N[C@@H]([C@@H](C)O)C(=O)N1)[C@@H](C)O [Compound 71, [19CD]-isoGlu-R-C( )-NTAT-C( )-ATQRLAHFLQRSSF-Gly(Me)-A-Ile(Me)-LSSTEVGSGT-Hyp-NH2] ({C20 diacid-γGlu}-RCNTATCATQRLAHFLQRSSF[Sar]A[NMeI]LSSTEVGSGT[Hyp]-NH2; disulfide 2-7) | A (A = >90%) | A (A = >90%) | A (A = >90%) | B (B = 70-90%) | 0.11 | – | – | – | – |
